Results taken from ChEMBL document CHEMBL1201862, “PubChem BioAssay data set” (2004).
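Grown in 96-well plates, cells were treated for 48 hours with each compound at five concentrations. Insufficient inhibition: endpoint recorded as highest concentration tested. Here, GI50 denotes the concentration required for 50% inhibition of growth.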 Calls of active or inactive are those of the source. Cut-off read from the data, not from the text of the source: active = GI50 up to about 1.1 µM and inactive = higher.

Key:
Experiment in all cases: inhibition of tumour cell growth, NCI panel, 48 h
IGROV-1 = tested on: IGROV-1
HCC 2998 = tested on: HCC 2998
SNB-78 = tested on: SNB-78
K562 = tested on: K562
HT-29 = tested on: HT-29
M14 = tested on: M14
CAKI-1 = tested on: CAKI-1
HOP-62 = tested on: HOP-62
SW-620 = tested on: SW-620
XF498 = tested on: XF498
UO-31 = tested on: UO-31
SN12C = tested on: SN12C
HOP-92 = tested on: HOP-92
HL-60 = tested on: HL-60
SK-MEL-5 = tested on: SK-MEL-5
HCT-116 = tested on: HCT-116
TK-10 = tested on: TK-10
SF-295 = tested on: SF-295
MCF7 = tested on: MCF7
COLO 205 = tested on: COLO 205
MDA-N = tested on: MDA-N
HOP-18 = tested on: HOP-18
KM-20L2 = tested on: KM-20L2
A498 = tested on: A498
M19-MEL = tested on: M19-MEL
Malme-3M = tested on: Malme-3M
SR = tested on: SR
EKVX = tested on: EKVX
DMS-273 = tested on: DMS-273
SNB-19 = tested on: SNB-19
SNB-75 = tested on: SNB-75
OVCAR-4 = tested on: OVCAR-4
NCI-H522 = tested on: NCI-H522
KM12 = tested on: KM12
Hs-578T = tested on: Hs-578T
OVCAR-8 = tested on: OVCAR-8
SF-539 = tested on: SF-539
MDA-MB-231 = tested on: MDA-MB-231
SF-268 = tested on: SF-268
SK-MEL-28 = tested on: SK-MEL-28
NCI-H460 = tested on: NCI-H460
UACC-62 = tested on: UACC-62
MDA-MB-435 = tested on: MDA-MB-435
786-0 = tested on: 786-0
A549 = tested on: A549
DU-145 = tested on: DU-145
SK-MEL-2 = tested on: SK-MEL-2
NCI/ADR-RES = tested on: NCI/ADR-RES
PC-3 = tested on: PC-3
RPMI-8226 = tested on: RPMI-8226
UACC-257 = tested on: UACC-257
RXF 393 = tested on: RXF 393
T47D = tested on: T47D
DLD-1 = tested on: DLD-1
NCI-H226 = tested on: NCI-H226
LOX IMVI = tested on: LOX IMVI
CCRF-CEM = tested on: CCRF-CEM
BT-549 = tested on: BT-549
OVCAR-3 = tested on: OVCAR-3
HCT-15 = tested on: HCT-15
NCI-H23 = tested on: NCI-H23
OVCAR-5 = tested on: OVCAR-5
SK-OV-3 = tested on: SK-OV-3
ACHN = tested on: ACHN
U-251 = tested on: U-251

COc1cc([C@@H]2c3cc4c(cc3[C@@H](OC3OC5CO[C@@H](c6cccs6)OC5C(O)C3O)[C@H]3COC(=O)[C@H]23)OCO4)cc(OC)c1O (stereo not given in full)
GI50 (IGROV-1): 1.7 µM (inactive) | GI50 (HCC 2998): 0.671 µM (active) | GI50 (SNB-78): 1.08 µM (active) | GI50 (K562): 0.724 µM (active) | GI50 (HT-29): 1.61 µM (inactive) | GI50 (M14): 0.594 µM (active) | GI50 (CAKI-1): 0.0733 µM (active) | GI50 (HOP-62): 0.135 µM (active) | GI50 (SW-620): 0.24 µM (active) | GI50 (XF498): 0.31 µM (active) | GI50 (UO-31): 4.35 µM (inactive) | GI50 (SN12C): 0.313 µM (active) | GI50 (HOP-92): 0.132 µM (active) | GI50 (HL-60): 0.0521 µM (active) | GI50 (SK-MEL-5): 0.548 µM (active) | GI50 (HCT-116): 0.885 µM (active) | GI50 (TK-10): 1.75 µM (inactive) | GI50 (SF-295): 0.144 µM (active) | GI50 (MCF7): 0.038 µM (active) | GI50 (COLO 205): 0.527 µM (active) | GI50 (MDA-N): 1.03 µM (active) | GI50 (HOP-18): 1.57 µM (inactive) | GI50 (KM-20L2): 2.12 µM (inactive) | GI50 (A498): 0.394 µM (active) | GI50 (M19-MEL): 0.828 µM (active) | GI50 (Malme-3M): 0.656 µM (active) | GI50 (SR): 0.0117 µM (active) | GI50 (EKVX): 1.3 µM (inactive) | GI50 (DMS-273): 0.084 µM (active) | GI50 (SNB-19): 0.299 µM (active) | GI50 (SNB-75): 0.502 µM (active) | GI50 (OVCAR-4): 5.12 µM (inactive) | GI50 (NCI-H522): 0.482 µM (active) | GI50 (KM12): 0.753 µM (active) | GI50 (Hs-578T): 0.42 µM (active) | GI50 (OVCAR-8): 0.538 µM (active) | GI50 (SF-539): 0.205 µM (active) | GI50 (MDA-MB-231): 1.12 µM (active) | GI50 (SF-268): 0.48 µM (active) | GI50 (SK-MEL-28): 1.66 µM (inactive) | GI50 (NCI-H460): 0.0171 µM (active) | GI50 (UACC-62): 0.183 µM (active) | GI50 (MDA-MB-435): 1.34 µM (inactive) | GI50 (786-0): 0.285 µM (active) | GI50 (A549): 0.144 µM (active) | GI50 (DU-145): 0.324 µM (active) | GI50 (SK-MEL-2): 1.09 µM (active) | GI50 (NCI/ADR-RES): 23.4 µM (inactive) | GI50 (PC-3): 1.11 µM (active) | GI50 (RPMI-8226): 0.164 µM (active) | GI50 (UACC-257): 1.86 µM (inactive) | GI50 (RXF 393): 0.478 µM (active) | GI50 (T47D): 0.162 µM (active) | GI50 (DLD-1): 2.18 µM (inactive) | GI50 (NCI-H226): 0.32 µM (active) | GI50 (LOX IMVI): 0.206 µM (active) | GI50 (CCRF-CEM): 0.046 µM (active) | GI50 (BT-549): 0.586 µM (active) | GI50 (OVCAR-3): 1.73 µM (inactive) | GI50 (HCT-15): 1.55 µM | GI50 (NCI-H23): 0.406 µM (active) | GI50 (OVCAR-5): 1.77 µM (inactive) | GI50 (SK-OV-3): 0.395 µM (active) | GI50 (ACHN): 0.173 µM (active) | GI50 (U-251): 0.147 µM (active)
